US9907637B2, “Modular bioresorbable or biomedical, biologically active supramolecular materials” (SupraPolix B.V., priority 2005, dated 2018)

Legend:
[1] = Extraction of peptide out of polymer films with water, LC-MS; assay type: physicochemical; details: for peptide dissolved: 80 minutes at 37° C. in a total volume of 5 mL water, 4 mole % peptide; for extraction: water 37° C., 4 mole % peptide in film of polymer of example 14
Method: The extraction of the peptide of example 18 and the peptide GRGDS without a UPy-unit out of films of example 29a was investigated with LC-MS measurements. The amount of peptide that was mixed in the polymeric materials is in both cases 4 mole %. Calibration was performed by quantification of one fragment of the parent ion (MS^2) of the peptides using different concentrations of the peptides. The surface area of the corresponding peak (in the total ion count) was calculated with the ICIS algorithm. The extraction experiments were performed as follows: the film was incubated at 37° C. for 5 minutes in 1 mL water, then the water was removed and the concentration of peptide was measured with the described LC-MS procedure (time-point: 5 minutes); another 1 mL water was added to the film which was subsequently incubated again for 5 minutes at 37° C. followed by removal of the water which was analysed with the LC-MS method (time-point: 10 minutes); another 1 mL water was added to the film and the sample was incubated for 10 minutes at 37° C. followed by removal of the water which was analysed with the LC-MS method (time-point: 20 minutes); incubation at 37° C. in another 1 mL water for 20 minutes, followed by removal of the water which was analysed with the LC-MS method (time-point: 40 minutes); and incubation at 37° C. in another 1 mL water for 40 minutes, followed by removal of the water which was analysed with the LC-MS method (time-point: 80 minutes).

[2] = as above; assay type: physicochemical; details: 2 hours at 37° C. in 1 mL water, 4 mole % peptide

Substance | peptide dissolved [1] | extraction ([1]; time 5 min) | extraction ([1]; time 10 min) | extraction ([1]; time 20 min) | peptide dissolved [2] | dissolution of peptide from film ([1]; within 5 minutes, water at 37° C.)
UPy-GRGDS [Example 18] | 76% | 39% | 60% | 76% | 64% | 
GRGDS | 105% | 91% | 97% | 100% | 101% | almost all of the peptide is dissolved
